System: lung metastasis
Assay: Lung metastatic nodules count (H&E staining)
Format: in vivo, mice
Conditions: compared to the PBS intervention group
Experimental: In order to explore the anti-tumor effect of TMP-F combined with chemotherapy, two doses of cisplatin chemotherapy (Cis) are added during the intervention process. […] In addition, the lungs of mice are extracted, hematoxylin-eosin (H&E) staining is performed on the lungs of mice, and the number of lung metastatic nodules under the light microscope are observed and counted.

N.N.[Cl][Pt][Cl] [chemotherapy alone, cisplatin]
lung metastasis (number of lung metastatic nodules): inhibits the lung metastasis
